According to the supplement of paper PMC13380429:

Columns and labels:
Conditions in all cases: 72 h
[1] = test system: Caco-2; assay: relative viability EC50 (midpoint between 100% and the lowest measured viability); higher = less toxic
[2] = test system: HepG2; assay: as above
[3] = test system: U2OS; assay: as above
[4] = test system: Calu-3; assay: as above
[5] = test system: Vero E6; assay: as above
[6] = test system: Caco-2; assay: drug sensitivity score (DSS) for viability; higher = more toxic; extreme values may be limits of the assay
[7] = test system: HepG2; assay: as above
[8] = test system: U2OS; assay: as above
[9] = test system: Calu-3; assay: as above
[10] = test system: Vero E6; assay: as above
[11] = test system: Caco-2; assay: cell viability relative to DMSO; higher = less toxic
[12] = test system: HepG2; assay: as above
[13] = test system: U2OS; assay: as above
[14] = test system: Calu-3; assay: as above
[15] = test system: Vero E6; assay: as above

Row | Compound | relative viability EC50 [1] | relative viability EC50 [2] | relative viability EC50 [3] | relative viability EC50 [4] | relative viability EC50 [5] | drug sensitivity score [6] | drug sensitivity score [7] | drug sensitivity score [8] | drug sensitivity score [9] | drug sensitivity score [10] | cell viability ([11]; 1 nM) | cell viability ([11]; 10 nM) | cell viability ([11]; 100 nM) | cell viability ([11]; 1000 nM) | cell viability ([11]; 10000 nM) | cell viability ([12]; 1 nM) | cell viability ([12]; 10 nM) | cell viability ([12]; 100 nM) | cell viability ([12]; 1000 nM) | cell viability ([12]; 10000 nM) | cell viability ([13]; 1 nM) | cell viability ([13]; 10 nM) | cell viability ([13]; 100 nM) | cell viability ([13]; 1000 nM) | cell viability ([13]; 10000 nM) | cell viability ([14]; 1 nM) | cell viability ([14]; 10 nM) | cell viability ([14]; 100 nM) | cell viability ([14]; 1000 nM) | cell viability ([14]; 10000 nM) | cell viability ([15]; 1 nM) | cell viability ([15]; 10 nM) | cell viability ([15]; 100 nM) | cell viability ([15]; 1000 nM) | cell viability ([15]; 10000 nM)
1 | N[C@@H](Cn1ccc(=O)n(Cc2ccccc2C(=O)O)c1=O)C(=O)O [UBP-302] | > 10 µM | > 10 µM | > 10 µM | > 10 µM | > 10 µM | 0 | 0 | 0 | 0 | 0 | 91.6% | 93% | 91.2% | 89.6% | 98.1% | 103% | 101% | 97.9% | 101% | 104% | 99% | 95.5% | 97.6% | 92.7% | 98.7% | 105% | 94.8% | 107% | 115% | 107% | 101% | 98.6% | 103% | 101% | 102%
2 | NC(=O)c1ccc([N+](=O)[O-])cc1Cl [aklomide] | > 10 µM | > 10 µM | > 10 µM | > 10 µM | > 10 µM | 0 | 0 | 0 | 0 | 0 | 95.9% | 95.3% | 100% | 92.2% | 98.1% | 95.5% | 95.9% | 100% | 91% | 102% | 107% | 103% | 99.4% | 101% | 103% | 112% | 106% | 112% | 98.9% | 103% | 98.4% | 98.4% | 95.8% | 96.6% | 104%
3 | Cc1ccc(C(=O)N(CCCN)[C@@H](c2oc3cc(Cl)ccc3c(=O)c2Cc2ccccc2)C(C)C)cc1 | 0.469 µM | 0.0342 µM | 0.165 µM | 2.33 µM | 0.169 µM | 14.3 | 27.1 | 18.1 | 7.2 | 19.7 | 98.9% | 78.2% | 62% | 66.1% | 5.6% | 102% | 45.1% | 36.9% | 34.4% | 0.1% | 100% | 74.6% | 52.7% | 52% | 8.2% | 98.2% | 91.5% | 89.1% | 90% | 0.4% | 99.4% | 87.5% | 44.7% | 42% | -0.2%
4 | N[C@@H](CSS(=O)(=O)O)C(=O)O [S-sulfo-L-cysteine] | > 10 µM | > 10 µM | > 10 µM | > 10 µM | > 10 µM | 0 | 0 | 0 | 0 | 0 | 97.9% | 105% | 88.1% | 100% | 94.2% | 108% | 101% | 103% | 94.8% | 94.5% | 94.4% | 102% | 95% | 102% | 98.4% | 97.7% | 92.6% | 94.4% | 95.8% | 95.2% | 98.3% | 96.2% | 103% | 97.5% | 102%
5 | Cn1c(=O)c2c(ncn2CC(=O)Nc2ccc(-c3ccccc3)nn2)n(C)c1=O [ETC-159] | > 10 µM | > 10 µM | > 10 µM | > 10 µM | > 10 µM | 0.5 | 1.9 | 0 | 0 | 0 | 91.7% | 91.3% | 98.3% | 93.5% | 79.9% | 94% | 89.4% | 106% | 87.4% | 79.2% | 95.1% | 96.7% | 93.4% | 99.2% | 98.5% | 98.1% | 94% | 103% | 113% | 110% | 97.1% | 97.8% | 93.7% | 89.4% | 94.7%
6 | CC[C@@H](C)N(C)C(=O)c1cc2ccccc2c(-c2ccccc2Cl)n1 | > 10 µM | > 10 µM | > 10 µM | > 10 µM | > 10 µM | 0 | 0 | 0 | 0 | 0 | 106% | 104% | 95.6% | 96.4% | 98.6% | 92.5% | 113% | 89.6% | 100% | 107% | 102% | 98.3% | 102% | 97.3% | 103% | 108% | 106% | 93.8% | 95.8% | 99.2% | 99.4% | 105% | 100% | 102% | 107%
7 | CN(C)CCc1c[nH]c2ccc(C[C@H]3COC(=O)N3)cc12 [zolmitriptan] | > 10 µM | > 10 µM | > 10 µM | > 10 µM | > 10 µM | 0 | 0 | 0 | 0 | 0 | 96.9% | 102% | 96.8% | 110% | 97.8% | 112% | 111% | 99% | 87.6% | 111% | 99% | 99.7% | 96.8% | 103% | 96.9% | 92.2% | 94.2% | 95.2% | 93.2% | 97% | 108% | 98.3% | 106% | 106% | 104%
8 | CC[C@H](Nc1ncnc2[nH]cnc12)c1nc2cccc(F)c2c(=O)n1-c1ccccc1 [idelalisib] | > 10 µM | > 10 µM | > 10 µM | > 10 µM | > 10 µM | 0.3 | 0.1 | 0 | 0 | 0.2 | 95.4% | 98.1% | 96.6% | 101% | 83.7% | 104% | 94% | 108% | 97.3% | 88.5% | 91.2% | 101% | 94.1% | 95.6% | 93.9% | 106% | 104% | 85.8% | 103% | 89.5% | 99% | 95% | 96% | 87.5% | 89.5%
9 | CCCCCCCCCCCC1=C(O)C(=O)C=C(O)C1=O [embelin] | > 10 µM | > 10 µM | > 10 µM | > 10 µM | > 10 µM | 0 | 0 | 0 | 0 | 0 | 98.2% | 97.2% | 98.5% | 104% | 92.2% | 95.9% | 94.4% | 98.9% | 98.6% | 102% | 107% | 95.1% | 101% | 94.7% | 95.3% | 106% | 98.6% | 110% | 96.2% | 104% | 92.1% | 94.3% | 97.8% | 105% | 97%
10 | COc1ccc(-c2cc(=O)c3c(O)cc(O)cc3o2)cc1O [diosmetin] | > 10 µM | > 10 µM | > 10 µM | > 10 µM | > 10 µM | 0.4 | 0 | 0 | 1 | 0 | 95.9% | 91.6% | 101% | 96.6% | 86.3% | 97.7% | 109% | 94.6% | 120% | 86.7% | 94.2% | 93.1% | 101% | 96.2% | 90.2% | 93.2% | 104% | 91.5% | 93.7% | 78.3% | 95.2% | 96.8% | 91% | 101% | 113%
11 | C[n+]1c2cc(N)ccc2cc2ccc(N)cc21.Nc1ccc2cc3ccc(N)cc3nc2c1 [acriflavine] | 1.17 µM | 0.49 µM | 2.85 µM | 1.35 µM | 2.77 µM | 8.5 | 14.9 | 6.1 | 8.6 | 6.1 | 91.9% | 101% | 93.6% | 65.2% | 19.2% | 91.6% | 95.3% | 88.9% | 29.2% | 0.7% | 98.1% | 100% | 96.6% | 95.8% | 0% | 103% | 93.1% | 102% | 73% | 15.4% | 97% | 100% | 98.8% | 95.1% | 2.8%
12 | CCN(CC)C(=O)N[C@H]1C=C2c3cccc4[nH]cc(c34)C[C@H]2N(C)C1 [lisuride] | > 10 µM | > 10 µM | > 10 µM | > 10 µM | > 10 µM | 0 | 0 | 0 | 0 | 0 | 102% | 81.3% | 101% | 115% | 100% | 87.7% | 90% | 101% | 97.4% | 96.3% | 99.9% | 100% | 100% | 93.4% | 96% | 96% | 88.6% | 104% | 85% | 105% | 97.7% | 106% | 93.5% | 102% | 106%
13 | C[C@H](NC(=O)/C(C#N)=C/c1cccc(Br)n1)c1ccccc1 [WP1066] | 3.45 µM | 2.66 µM | 3.06 µM | > 10 µM | 2.96 µM | 4.1 | 5.8 | 5.7 | 0.8 | 5 | 95.8% | 96.7% | 96.4% | 104% | 20.1% | 100% | 101% | 105% | 94.2% | 10.3% | 102% | 99.2% | 105% | 98.5% | 0.7% | 102% | 93% | 90.6% | 103% | 75.4% | 97.3% | 96.8% | 98.3% | 97.6% | 15.9%
14 | CNC(=O)c1ccc(-c2cnc3ncc(Cc4ccc5ncccc5c4)n3n2)cc1F [INC-280] | > 10 µM | > 10 µM | > 10 µM | > 10 µM | > 10 µM | 0 | 0.2 | 0 | 0 | 0.3 | 97.9% | 90.7% | 96.6% | 104% | 88.4% | 89.2% | 100% | 88.8% | 111% | 82.6% | 107% | 95.7% | 99.6% | 98.1% | 102% | 101% | 103% | 99.9% | 101% | 110% | 95.7% | 98.4% | 91.5% | 96.1% | 83%
15 | COc1ccc(Cl)cc1[C@]1(F)C(=O)Nc2cc(C(F)(F)F)ccc21 [flindokalner] | > 10 µM | > 10 µM | > 10 µM | > 10 µM | > 10 µM | 0 | 0 | 0 | 0 | 0 | 95.2% | 102% | 97.6% | 101% | 88.7% | 103% | 96.3% | 103% | 100% | 95.2% | 96.9% | 102% | 97.3% | 97.8% | 95.2% | 103% | 91.3% | 96.3% | 96.9% | 93.9% | 97.7% | 96.1% | 98.8% | 95.6% | 101%
